Calls of active or inactive are those of the source.
Key:
[1] = growth suppression of beta-catenin-knockout colon cells, dose response, cell-based, HCT116, human colon tumor (AID 1045); assay type: functional;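 also: HCT116 colon tumor cells with beta catenin knocked out; cells exposed to compound for 60 hours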
[2] = biological target: Beta-2 adrenergic receptor (Homo sapiens, UniProt P07550); test: beta2AR agonists driving receptor internalization, dose response, cell-based, FAP fluorogen, flow cytometry, cherry pick 1 (AID 588763); assay type: functional
[3] = inhibitors of intracellular T. cruzi replication, confirmation, NIH3T3 host cells, beta-gal luminescence (AID 2044); assay type: functional, cell-based;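 also: intracellular parasites grown in NIH/3T3 mouse fibroblasts as host cells; luminescent beta-galactosidase reporter signal from transgenic T. cruzi replicating inside host cells; inhibitors lower the luminescence signal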
HEK293 [4] = test: cells; assay type: functional, cell-based; conditions: Homo sapiens
[5] = growth suppression of PTEN-null colon cells, dose response, cell-based, HCT116 PTEN knockout (AID 1047); assay type: functional;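 also: HCT116 colon tumor cells with PTEN knocked out; cells exposed to compound for 60 hours before readout; potency for loss of cell viability measured by luminescence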
[6] = biological target: T1, Heat shock factor protein 1 (Mus musculus, UniProt P38532); test: inhibition of MG132-induced HSE-luciferase signal, confirmation, cell-based, NIH3T3, luminescence, dose retest (AID 2382); assay type: functional;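 also: NIH3T3 fibroblasts with HSF1-driven luciferase reporter stressed by proteasome inhibitor MG132; luminescence from HSF1-driven luciferase expression after 8 hours of MG132 stress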
T1 sequence (P38532 whole entry): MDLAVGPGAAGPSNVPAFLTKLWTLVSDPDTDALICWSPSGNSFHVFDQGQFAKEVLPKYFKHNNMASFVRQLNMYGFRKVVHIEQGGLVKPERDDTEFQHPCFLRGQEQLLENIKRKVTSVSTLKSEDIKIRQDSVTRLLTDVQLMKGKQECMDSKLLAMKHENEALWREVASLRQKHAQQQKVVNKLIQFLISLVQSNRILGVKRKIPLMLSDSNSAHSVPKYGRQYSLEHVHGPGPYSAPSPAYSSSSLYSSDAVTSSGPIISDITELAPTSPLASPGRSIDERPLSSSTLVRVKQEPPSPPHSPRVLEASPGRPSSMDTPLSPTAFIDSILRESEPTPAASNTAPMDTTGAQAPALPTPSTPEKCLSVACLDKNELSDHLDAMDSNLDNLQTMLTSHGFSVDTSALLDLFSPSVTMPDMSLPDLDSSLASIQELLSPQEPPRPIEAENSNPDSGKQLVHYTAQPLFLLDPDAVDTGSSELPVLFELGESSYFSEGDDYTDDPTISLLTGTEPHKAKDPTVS

[7] = HepG2 cell cytotoxicity, dose response, cytotoxicity control for Shn3 inhibitor project, CellTiter-Glo, cherry-picked (AID 624134); assay type: functional, cell-based
HEK293 [8] = test: NOD1 signaling inhibitors, primary screen, cell-based, luminescence, uHTS (AID 1578); assay type: functional; conditions: Homo sapiens
[9] = biological target: Sphingosine 1-phosphate receptor 1 (Homo sapiens, UniProt P21453); assay type: functional;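 also: Tango beta-arrestin reporter U2OS cells stimulated with S1P near its EC80; inhibitor potency meaning antagonism of receptor activation by the natural agonist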
[10] = control 3'UTR Renilla luciferase suppression, dose response, counter-screen for Shn3 inhibitor project, cell-based, Clone20-Shn3RL, cherry-picked (AID 624133); assay type: functional
[11] = cytotoxicity toward NIH3T3 fibroblasts, dose response, counter-screen, cell-based, ATP luminescence, mouse fibroblasts (AID 2010); assay type: functional;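 also: cells exposed to compound for about 90 hours before reading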
HeLa = test: Cytotoxicity counterscreen assay for transcriptional activators of heat shock protein 70 (Hsp70). [Related pubchem assays: 1203, 1252 ]; assay type: functional; conditions: Homo sapiens
HEK293 [12] = test: cells; assay type: functional, cell-based; conditions: Homo sapiens; remark: listed apart in the source
[13] = biological target: Sphingosine 1-phosphate receptor 4 (Homo sapiens, UniProt O95977); test: Fluorescence dose response cell-based high throughput screening assay for antagonists of the Sphingosine 1-Phosphate Receptor 4 (S1P4). [Related pubchem assays: 1524 (Confirmation in triplicates.), 1510 (Primary screen.)]; assay type: functional
HEK293 [14] = test: NOD2 signaling inhibitors in MDP-stimulated cells, cell-based, uHTS, luminescence (AID 2001); assay type: functional; conditions: Homo sapiens
INS1 = test: beta cell apoptosis inhibitors, cytokine rescue, dose response, luminescence, retest (AID 449756); assay type: functional, cell-based; conditions: Rattus norvegicus;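 also: cell death triggered by IL-1 beta plus TNF-alpha plus IFN-gamma mixture; protective hits raise ATP signal compared with cytokine alone wells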
[15] = Shn3 3'UTR reporter inhibitors, dose response, cell-based, Clone20 osteoblasts, firefly luciferase, cherry-picked (AID 624132); assay type: functional;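 also: firefly luciferase luminescence from reporter carrying the Shn3 3'UTR in osteoblasts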
[16] = biological target: T2, RNA-binding protein pos-1 (Caenorhabditis elegans, UniProt G5EF15); test: inhibitors of POS-1/mex-3 RNA binding, dose response, biochemical, fluorescence polarization (AID 1964);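 also: purified POS-1 fused to maltose binding protein made in E. coli; potency of compounds blocking POS-1 binding to fluorescent RNA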
T2 sequence (G5EF15 whole entry): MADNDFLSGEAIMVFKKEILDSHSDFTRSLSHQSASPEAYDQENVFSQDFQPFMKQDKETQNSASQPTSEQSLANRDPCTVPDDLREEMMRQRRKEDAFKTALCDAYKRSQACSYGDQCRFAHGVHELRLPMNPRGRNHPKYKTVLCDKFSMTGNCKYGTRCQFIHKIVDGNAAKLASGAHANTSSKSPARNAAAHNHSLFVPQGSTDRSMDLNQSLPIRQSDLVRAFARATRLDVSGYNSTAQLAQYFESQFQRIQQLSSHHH

[17] = biological target: T3, Zinc finger protein mex-5 (Caenorhabditis elegans, UniProt Q9XUB2); test: MEX-5/TCR-2 RNA interaction inhibitors, dose response, biochemical, C. elegans, fluorescence polarization (AID 1960)
T3 sequence (Q9XUB2 whole entry): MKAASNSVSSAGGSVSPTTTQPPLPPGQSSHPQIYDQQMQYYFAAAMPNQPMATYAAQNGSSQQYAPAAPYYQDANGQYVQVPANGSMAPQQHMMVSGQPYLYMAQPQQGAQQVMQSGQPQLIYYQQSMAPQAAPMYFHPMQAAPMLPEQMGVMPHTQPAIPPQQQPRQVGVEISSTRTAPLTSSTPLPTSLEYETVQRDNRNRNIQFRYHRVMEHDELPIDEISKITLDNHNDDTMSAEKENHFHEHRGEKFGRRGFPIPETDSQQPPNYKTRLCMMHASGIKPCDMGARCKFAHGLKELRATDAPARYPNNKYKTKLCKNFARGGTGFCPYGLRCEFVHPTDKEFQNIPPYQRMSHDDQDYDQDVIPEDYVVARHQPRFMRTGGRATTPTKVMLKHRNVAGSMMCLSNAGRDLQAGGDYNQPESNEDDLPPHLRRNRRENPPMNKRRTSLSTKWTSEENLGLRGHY

[18] = inhibitors of Bluetongue virus cytopathic effect, confirmation, arbovirus, BSR cells (AID 1250); assay type: functional;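 also: protection from viral cytopathic effect measured as cell viability by ATP luminescence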
[19] = biological target: T4, Replicative DNA helicase DnaB (Mycobacterium tuberculosis, UniProt P9WMR3); test: DnaB intein splicing inhibitors, dose response, biochemical, cell-free fluorescence (AID 449749); assay type: functional
T4 sequence (P9WMR3 whole entry): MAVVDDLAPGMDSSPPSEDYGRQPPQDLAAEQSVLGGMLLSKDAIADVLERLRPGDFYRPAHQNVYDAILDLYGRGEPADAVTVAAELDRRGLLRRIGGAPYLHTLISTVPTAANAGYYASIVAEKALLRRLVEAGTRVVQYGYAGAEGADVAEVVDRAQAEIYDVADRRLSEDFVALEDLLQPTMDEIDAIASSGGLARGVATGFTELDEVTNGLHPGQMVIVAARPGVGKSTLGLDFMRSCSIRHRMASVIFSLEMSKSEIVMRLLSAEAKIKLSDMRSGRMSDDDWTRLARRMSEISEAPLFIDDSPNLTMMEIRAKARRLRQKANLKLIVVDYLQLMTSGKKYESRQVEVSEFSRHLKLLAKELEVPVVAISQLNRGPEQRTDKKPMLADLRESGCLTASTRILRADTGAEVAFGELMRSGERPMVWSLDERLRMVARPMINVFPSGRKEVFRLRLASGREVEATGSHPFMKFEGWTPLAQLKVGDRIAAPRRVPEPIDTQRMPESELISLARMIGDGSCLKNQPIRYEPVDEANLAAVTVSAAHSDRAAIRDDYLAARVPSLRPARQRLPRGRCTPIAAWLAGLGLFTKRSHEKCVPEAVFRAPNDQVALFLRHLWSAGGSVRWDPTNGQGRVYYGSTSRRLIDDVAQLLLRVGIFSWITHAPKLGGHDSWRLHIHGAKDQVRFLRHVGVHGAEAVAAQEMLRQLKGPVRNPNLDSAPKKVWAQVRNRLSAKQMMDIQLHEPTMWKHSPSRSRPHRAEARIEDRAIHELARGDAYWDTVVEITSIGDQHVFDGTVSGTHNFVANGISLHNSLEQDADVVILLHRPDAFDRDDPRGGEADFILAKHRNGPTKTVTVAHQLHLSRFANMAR

Protein RecA = biological target: T5, Protein RecA (Mycobacterium tuberculosis, UniProt P9WHJ3); test: Fluorescence Cell-Free Homogeneous Dose Retest to Identify Inhibitors of RecA-Intein Splicing Activity. [Related pubchem assays (depositor defined):AID2097, AID2223, AID489010, AID492950]; assay type: functional
T5 sequence (P9WHJ3 whole entry): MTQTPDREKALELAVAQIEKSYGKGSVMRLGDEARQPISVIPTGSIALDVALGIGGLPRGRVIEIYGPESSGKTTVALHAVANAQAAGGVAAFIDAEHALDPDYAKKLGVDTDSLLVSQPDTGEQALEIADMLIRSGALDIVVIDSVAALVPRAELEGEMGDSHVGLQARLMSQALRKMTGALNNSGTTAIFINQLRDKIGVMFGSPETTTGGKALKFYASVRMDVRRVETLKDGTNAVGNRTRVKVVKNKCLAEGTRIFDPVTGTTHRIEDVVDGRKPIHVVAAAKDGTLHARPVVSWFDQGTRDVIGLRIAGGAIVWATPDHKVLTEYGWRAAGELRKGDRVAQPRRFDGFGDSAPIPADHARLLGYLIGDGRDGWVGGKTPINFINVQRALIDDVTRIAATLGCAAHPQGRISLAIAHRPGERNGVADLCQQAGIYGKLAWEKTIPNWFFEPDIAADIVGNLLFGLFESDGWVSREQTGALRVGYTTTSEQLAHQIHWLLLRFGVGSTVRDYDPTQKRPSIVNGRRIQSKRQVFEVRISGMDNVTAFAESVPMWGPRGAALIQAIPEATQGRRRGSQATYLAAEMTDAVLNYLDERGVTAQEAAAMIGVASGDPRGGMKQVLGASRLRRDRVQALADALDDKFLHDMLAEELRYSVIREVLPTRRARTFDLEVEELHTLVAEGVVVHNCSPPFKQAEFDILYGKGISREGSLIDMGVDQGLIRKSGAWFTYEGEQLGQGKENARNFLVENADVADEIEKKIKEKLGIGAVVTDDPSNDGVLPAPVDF

[20] = biological target: Peroxisome proliferator-activated receptor gamma/Nuclear receptor coactivator 2 (Homo sapiens, UniProt P37231); assay type: functional;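 also: agonist potency for raising coactivator recruitment to the receptor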
[21] = biological target: Induced myeloid leukemia cell differentiation protein Mcl-1 (Homo sapiens, UniProt Q07820); assay type: functional
[22] = biological target: Peroxisome proliferator-activated receptor gamma/Nuclear receptor coactivator 3 (Homo sapiens, UniProt P37231); assay type: functional;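 also: agonist potency for raising coactivator recruitment to the receptor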
[23] = biological target: Peroxisome proliferator-activated receptor gamma/Nuclear receptor coactivator 1 (Homo sapiens, UniProt P37231); assay type: functional;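 also: agonist potency as compounds enhance coactivator SRC-1 recruitment to PPARgamma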
[24] = biological target: T6, Mannose-6-phosphate isomerase (Homo sapiens, UniProt P34949); test: human PMI inhibitors, high substrate, primary screen, biochemical, fluorescence intensity, high mannose 6-phosphate (AID 1220)
T6 sequence (P34949 whole entry): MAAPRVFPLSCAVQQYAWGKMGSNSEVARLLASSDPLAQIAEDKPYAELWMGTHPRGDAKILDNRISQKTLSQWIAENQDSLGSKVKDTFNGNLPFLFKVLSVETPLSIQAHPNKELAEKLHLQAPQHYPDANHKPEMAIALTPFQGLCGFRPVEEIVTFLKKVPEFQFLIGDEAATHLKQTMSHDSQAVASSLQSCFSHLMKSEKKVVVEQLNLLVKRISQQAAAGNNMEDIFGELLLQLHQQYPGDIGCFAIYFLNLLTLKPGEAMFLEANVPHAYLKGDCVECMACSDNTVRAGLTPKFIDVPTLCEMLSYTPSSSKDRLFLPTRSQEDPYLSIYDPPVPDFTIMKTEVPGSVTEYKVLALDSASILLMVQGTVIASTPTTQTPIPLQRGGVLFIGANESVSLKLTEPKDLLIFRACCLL

Large T antigen = Large T antigen (Simian virus 40, UniProt P03070); assay type: functional, Betapolyomavirus macacae;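 also: Confirmatory-stage PubChem screen for compounds that inhibit SV40 T antigen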
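For CC50 in this document: cells exposed to compound for 16 hours before readout.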

Chain of Sphingosine 1-phosphate receptor 4 (O95977 whole entry): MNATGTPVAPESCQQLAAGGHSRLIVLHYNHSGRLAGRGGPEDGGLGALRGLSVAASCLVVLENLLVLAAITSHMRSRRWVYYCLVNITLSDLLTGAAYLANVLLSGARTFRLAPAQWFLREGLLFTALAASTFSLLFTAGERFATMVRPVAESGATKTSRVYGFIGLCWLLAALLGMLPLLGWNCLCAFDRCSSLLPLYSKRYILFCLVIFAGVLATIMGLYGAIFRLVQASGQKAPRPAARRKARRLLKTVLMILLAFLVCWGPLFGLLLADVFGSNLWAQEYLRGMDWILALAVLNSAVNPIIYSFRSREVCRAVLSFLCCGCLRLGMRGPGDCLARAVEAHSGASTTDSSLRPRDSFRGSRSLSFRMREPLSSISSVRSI
Chain of Large T antigen (P03070 whole entry): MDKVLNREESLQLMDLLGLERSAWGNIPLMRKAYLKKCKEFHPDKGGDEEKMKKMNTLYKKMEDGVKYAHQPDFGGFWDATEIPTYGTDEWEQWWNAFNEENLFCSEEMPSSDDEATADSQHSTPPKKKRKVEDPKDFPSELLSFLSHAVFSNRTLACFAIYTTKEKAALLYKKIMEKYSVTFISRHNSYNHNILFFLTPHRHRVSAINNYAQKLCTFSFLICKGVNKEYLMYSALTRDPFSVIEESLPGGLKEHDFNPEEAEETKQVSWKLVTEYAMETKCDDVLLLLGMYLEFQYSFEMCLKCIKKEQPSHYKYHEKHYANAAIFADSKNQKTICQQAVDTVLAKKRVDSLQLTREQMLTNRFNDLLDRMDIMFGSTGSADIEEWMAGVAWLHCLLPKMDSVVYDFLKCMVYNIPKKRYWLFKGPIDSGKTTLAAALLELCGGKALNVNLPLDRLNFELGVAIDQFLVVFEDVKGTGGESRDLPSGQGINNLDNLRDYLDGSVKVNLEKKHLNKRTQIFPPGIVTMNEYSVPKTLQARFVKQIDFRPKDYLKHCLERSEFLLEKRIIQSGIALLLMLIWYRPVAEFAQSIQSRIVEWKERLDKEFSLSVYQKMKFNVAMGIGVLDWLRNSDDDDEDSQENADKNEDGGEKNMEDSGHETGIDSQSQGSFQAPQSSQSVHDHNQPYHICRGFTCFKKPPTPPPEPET
Chain of Induced myeloid leukemia cell differentiation protein Mcl-1 (Q07820 whole entry): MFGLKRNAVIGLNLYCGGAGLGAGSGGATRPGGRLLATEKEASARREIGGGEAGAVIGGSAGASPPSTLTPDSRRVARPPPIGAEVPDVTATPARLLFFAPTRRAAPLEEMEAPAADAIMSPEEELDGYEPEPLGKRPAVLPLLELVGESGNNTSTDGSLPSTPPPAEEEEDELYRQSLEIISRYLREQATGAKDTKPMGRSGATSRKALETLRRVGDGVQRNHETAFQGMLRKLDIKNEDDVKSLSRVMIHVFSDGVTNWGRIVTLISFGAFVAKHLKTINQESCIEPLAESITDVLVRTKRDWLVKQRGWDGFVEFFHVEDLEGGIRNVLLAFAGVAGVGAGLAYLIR
Chain of Peroxisome proliferator-activated receptor gamma/Nuclear receptor coactivator 2 (P37231 whole entry): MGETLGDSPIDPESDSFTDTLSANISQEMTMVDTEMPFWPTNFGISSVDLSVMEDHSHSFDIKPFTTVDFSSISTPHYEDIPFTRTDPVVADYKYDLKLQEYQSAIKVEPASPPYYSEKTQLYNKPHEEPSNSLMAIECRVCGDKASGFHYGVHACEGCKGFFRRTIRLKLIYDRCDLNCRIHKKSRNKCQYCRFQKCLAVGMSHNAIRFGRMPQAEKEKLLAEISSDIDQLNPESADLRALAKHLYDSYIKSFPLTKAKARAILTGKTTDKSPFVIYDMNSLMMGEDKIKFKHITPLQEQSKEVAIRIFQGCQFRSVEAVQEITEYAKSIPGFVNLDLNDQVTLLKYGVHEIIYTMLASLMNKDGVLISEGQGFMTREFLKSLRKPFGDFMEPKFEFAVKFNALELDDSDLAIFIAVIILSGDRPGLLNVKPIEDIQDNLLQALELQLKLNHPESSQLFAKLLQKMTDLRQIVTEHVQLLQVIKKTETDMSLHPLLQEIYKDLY
Chain of Peroxisome proliferator-activated receptor gamma/Nuclear receptor coactivator 2 (Q15596 whole entry, further chain): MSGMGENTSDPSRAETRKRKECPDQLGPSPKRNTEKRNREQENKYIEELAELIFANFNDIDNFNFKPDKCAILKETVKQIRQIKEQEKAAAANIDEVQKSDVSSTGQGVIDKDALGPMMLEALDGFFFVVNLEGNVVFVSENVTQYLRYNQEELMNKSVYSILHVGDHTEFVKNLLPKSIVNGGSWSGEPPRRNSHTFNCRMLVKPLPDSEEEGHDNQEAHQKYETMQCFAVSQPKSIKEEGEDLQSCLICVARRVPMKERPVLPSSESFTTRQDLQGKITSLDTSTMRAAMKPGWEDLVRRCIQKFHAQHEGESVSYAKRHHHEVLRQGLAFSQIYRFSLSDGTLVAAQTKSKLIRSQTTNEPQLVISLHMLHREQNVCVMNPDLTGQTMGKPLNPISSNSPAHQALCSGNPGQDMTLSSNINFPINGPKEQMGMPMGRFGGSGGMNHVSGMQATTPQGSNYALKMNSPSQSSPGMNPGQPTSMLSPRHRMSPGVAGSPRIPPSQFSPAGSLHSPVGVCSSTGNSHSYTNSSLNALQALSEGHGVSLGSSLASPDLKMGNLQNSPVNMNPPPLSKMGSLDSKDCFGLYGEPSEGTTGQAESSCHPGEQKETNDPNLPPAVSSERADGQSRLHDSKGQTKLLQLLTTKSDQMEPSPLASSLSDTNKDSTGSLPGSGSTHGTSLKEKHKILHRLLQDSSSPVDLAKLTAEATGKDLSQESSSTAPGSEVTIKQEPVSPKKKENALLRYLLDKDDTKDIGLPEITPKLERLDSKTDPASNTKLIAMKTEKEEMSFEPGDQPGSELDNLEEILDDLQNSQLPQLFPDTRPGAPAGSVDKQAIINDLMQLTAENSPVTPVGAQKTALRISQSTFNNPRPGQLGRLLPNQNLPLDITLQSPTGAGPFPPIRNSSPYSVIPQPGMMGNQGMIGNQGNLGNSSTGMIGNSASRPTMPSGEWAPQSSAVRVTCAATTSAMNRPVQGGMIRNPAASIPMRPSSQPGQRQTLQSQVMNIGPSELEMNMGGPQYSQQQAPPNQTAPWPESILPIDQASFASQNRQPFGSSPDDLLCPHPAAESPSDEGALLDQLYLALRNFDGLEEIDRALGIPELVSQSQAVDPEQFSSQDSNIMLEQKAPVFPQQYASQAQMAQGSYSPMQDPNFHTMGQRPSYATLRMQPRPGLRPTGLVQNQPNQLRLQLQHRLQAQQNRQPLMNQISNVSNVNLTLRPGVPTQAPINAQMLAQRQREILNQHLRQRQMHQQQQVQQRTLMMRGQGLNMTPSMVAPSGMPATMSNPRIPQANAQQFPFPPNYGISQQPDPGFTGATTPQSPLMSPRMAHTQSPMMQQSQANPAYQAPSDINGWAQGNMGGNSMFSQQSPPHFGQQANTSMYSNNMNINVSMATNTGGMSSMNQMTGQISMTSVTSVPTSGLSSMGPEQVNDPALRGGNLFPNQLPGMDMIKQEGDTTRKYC
Chain of Beta-2 adrenergic receptor (P07550 whole entry): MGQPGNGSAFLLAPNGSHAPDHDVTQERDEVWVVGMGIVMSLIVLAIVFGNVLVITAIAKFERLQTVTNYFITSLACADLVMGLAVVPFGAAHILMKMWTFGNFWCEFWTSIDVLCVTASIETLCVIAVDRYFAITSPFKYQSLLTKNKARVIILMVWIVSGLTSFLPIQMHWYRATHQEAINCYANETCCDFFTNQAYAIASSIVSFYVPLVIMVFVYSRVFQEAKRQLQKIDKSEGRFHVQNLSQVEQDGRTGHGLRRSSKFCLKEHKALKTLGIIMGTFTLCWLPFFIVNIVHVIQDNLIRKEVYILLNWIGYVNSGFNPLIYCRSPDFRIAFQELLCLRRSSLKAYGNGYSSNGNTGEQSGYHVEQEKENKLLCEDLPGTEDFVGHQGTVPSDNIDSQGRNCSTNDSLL
Chain of Sphingosine 1-phosphate receptor 1 (P21453 whole entry): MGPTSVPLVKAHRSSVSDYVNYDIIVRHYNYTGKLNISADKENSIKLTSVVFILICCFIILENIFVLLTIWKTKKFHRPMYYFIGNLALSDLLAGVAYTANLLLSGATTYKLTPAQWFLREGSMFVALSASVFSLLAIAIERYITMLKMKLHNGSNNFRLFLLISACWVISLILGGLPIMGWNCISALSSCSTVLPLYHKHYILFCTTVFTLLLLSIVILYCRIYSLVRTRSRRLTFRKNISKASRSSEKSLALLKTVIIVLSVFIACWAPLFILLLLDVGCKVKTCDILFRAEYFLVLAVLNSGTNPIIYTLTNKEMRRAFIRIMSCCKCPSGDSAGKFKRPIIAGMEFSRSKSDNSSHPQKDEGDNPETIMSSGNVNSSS

## Cc1ccc(-c2nc(NC(=O)c3nn(C)cc3[N+](=O)[O-])sc2C)cc1C
[1]
  EC50: 0.207 µM (active)
[2]
  EC50: 64.1 µM (inactive)
[3]
  EC50: 2.7 µM (active)
HEK293 [4]
  IC50: 17.7 µM (active)
[5]
  EC50: 0.224 µM (active)
[6]
  EC50: 4.28 µM (inconclusive)
[7]
  AC50: 18.2 µM (active)
HEK293 [8]
  EC50: 9.93 µM (active)
[9]
  IC50: 18.1 µM (not active)
[10]
  AC50: 6.06 µM (active)
[11]
  EC50: 4.71 µM (active)
HeLa
  CC50: 2.08 µM (active)
HEK293 [12]
  IC50: 6.72 µM (active)
[13]
  IC50: 1 µM (active)
HEK293 [14]
  IC50: 3.82 µM (active)
INS1
  AC50: 3.62 µM (active)
[15]
  AC50: 2.25 µM (active)

## O=C1NC(=O)N(Cc2ccc(F)cc2)C(=O)/C1=C/NNC(=O)c1ccccc1O
[16]
  EC50: 10.1 µM (active)
[17]
  EC50: 9.33 µM (active)
[18]
  IC50: > 100 µM (active)
[19]
  AC50: 6.55 µM (active)
Protein RecA
  EC50: 21.9 µM (active)

## COc1ccc(N2CCC(CNC(=O)Nc3ccccc3)C2)cc1 (stereo not drawn)
[20]
  EC50: > 79.4 µM (not active)
[21]
  IC50: 2.58 µM (active)
[22]
  EC50: > 79.4 µM (not active)
[23]
  EC50: > 79.4 µM (not active)
[24]
  IC50: > 50 µM (not active)
Large T antigen
  IC50: 10.6 µM (active)

Source: ChEMBL document CHEMBL1201862, “PubChem BioAssay data set” (2004)
